Active and inactive are the calls of the source.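 The calls were made as follows: active = compounds giving half or more protection of infected cells from virus-caused growth loss, again on retest; inactive = the rest.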 A value given as a limit tells only on which side of the number the result lay.

The subject of the assay is CEM cells HIV-1 protection, formazan growth assay. Put plainly: NCI AIDS Antiviral Assay. Particulars: for IC50: measured here: growth of uninfected CEM cells. An outline of the steps:
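Human CEM cells, uninfected and HIV-1-infected, received five drug concentrations, and growth was read by soluble formazan assay. Compounds giving at least 50% protection were retested; reproducible 100% protection defined confirmed active.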

`Cc1cn(C(C)OCCN2C(=O)c3ccccc3C2=O)c(=O)[nH]c1=O` (configuration not stated): the EC50 (usually the concentration at which the effect is half-maximal) is over 200 µM and the IC50 (usually the midpoint of a concentration-inhibition curve) is over 200 µM. As to `COC(=O)C(=O)C(C(=O)OC)C(=O)C(=O)Nc1c(Cl)cc([N+](=O)[O-])cc1Cl` (configuration not stated), the EC50 was over 23.4 µM and the 50% inhibitory concentration (IC50) is over 23.4 µM. Consider `CC1(C)c2ccccc2C(C)(C)[N+]1(C)C`, for which the EC50 is over 200 µM and the IC50 was found to be 123 µM. For the compound `Nc1c(Br)cc2snc3c2c1C(=O)c1ccccc1-3`, the EC50 is over 15.8 µM and the 50% inhibitory concentration (IC50) is 8.51 µM. In the case of `COc1cc(C(=O)N2C[C@H](O)C[C@H]2C(=O)O)cc(OC)c1OC`, the EC50 is over 200 µM and the 50% inhibitory concentration (IC50) was over 200 µM. For `COC(=O)C(=NNc1ccccc1[N+](=O)[O-])C(=O)OC`, the outcome was inactive.

As to `Nc1c(-c2ccccc2)c2ccc([N+](=O)[O-])cc2c(=O)n1-c1cccc(C(=O)O)c1`, the EC50 is over 200 µM and the IC50 amounted to 135 µM. On to `Cc1cc(C)c(C(=O)/C(=C/c2ccccc2)c2ccccc2)c(C)c1`, for which the EC50 is over 15.8 µM and the IC50 was over 15.8 µM. Take `CC(C)OP(=O)(OC(C)C)/C(F)=N/Nc1ccc([N+](=O)[O-])cc1`: the EC50 was over 38.9 µM and the IC50 was over 38.9 µM.

`O=C(O)C1NCCc2c1[nH]c1ccccc21` (configuration not stated): the result was inactive.

Turning to `OC12c3ccccc3C3CCC4(OCCO4)C3C1c1ccccc12` (configuration not stated), the EC50 is over 200 µM and the IC50 is 141 µM. For `N#Cc1ccccc1NC(=O)/C(=N\N)C(C(=O)c1ccncc1)C1OC(=O)c2ccccc21` (configuration not stated), the result was inactive. Consider `CCCNCC(O)COc1ccc2c3c(c(=O)oc2c1)CCC3` (configuration not stated), for which the EC50 was over 200 µM and the IC50 was found to be 87.1 µM.

Turning to `NCCCN(CCCCN(CCCN)CCCc1ccccc1)CCCc1ccccc1`, the outcome was inactive. On to `O=C1OCc2cc[n+]([O-])cc21`, for which the EC50 was over 1660 µM and the half-maximal inhibitory concentration (IC50) was over 1660 µM. For the compound `COC(=O)C1=C(C(=O)OC)N(c2ccc(OC)cc2[N+](=O)[O-])C(c2ccc(C)cc2)=CC1c1ccc(OC)cc1OC` (configuration not stated), the EC50 is over 100 µM and the IC50 was determined as 3.02 µM. On the same counts, the results for `Cc1ccnc(NC(=O)Nc2ccccc2Cl)c1` are over 200 µM and over 200 µM. As for `CCCCOC(=O)CCC(Nc1nc(Cl)nc(Cl)n1)C(=O)OCCCC` (configuration not stated), the EC50 is over 200 µM and the IC50 was over 200 µM.

Regarding `C=CCC12CC(O)C(O)CC1(O)OC(c1cc(OC)c(OC)c(OC)c1)C2C` (configuration not stated), the EC50 was over 200 µM and the IC50 is over 200 µM. Consider `COc1ccc2c(c1)CCc1c-2n(CCN2CCCCC2)c2ccc(OC)cc12`, for which the EC50 was over 100 µM and the IC50 is over 100 µM. For the compound `c1ccc(/N=N/c2ccccn2)nc1`, the EC50 was over 200 µM and the half-maximal inhibitory concentration (IC50) was over 200 µM.

Take `COc1nc(NC2OC(COC(C)=O)C(OC(C)=O)C(OC(C)=O)C2OC(C)=O)c(N=CC=Nc2c(NC3OC(COC(C)=O)C(OC(C)=O)C(OC(C)=O)C3OC(C)=O)nc(OC)n(C)c2=O)c(=O)n1C` (configuration not stated): the result was inactive. `Cc1ccnc(NS(=O)(=O)c2ccc(N=Nc3cc4ccccc4c(C(=O)O)c3O)cc2)n1`: the EC50 was over 200 µM and the half-maximal inhibitory concentration (IC50) is 10 µM. On the same counts, the results for `C=C(C)[C@@H]1CC[C@]2(COC(=O)CC(C)CC(=O)O)CC[C@]3(C)[C@H](CC[C@@H]4[C@@]5(C)CC[C@H](OC(=O)CC(C)CC(=O)O)C(C)(C)[C@@H]5CC[C@]43C)[C@@H]12` (some centres not stated) are over 200 µM and 19.1 µM. As for `COc1ccc2c(c1)C(=O)C1NC(=O)NC(=O)C1(Br)N2` (configuration not stated), the EC50 is over 200 µM and the IC50 was over 200 µM. In the case of `O=C1OC2(c3ccccc3Oc3ccccc32)c2ccccc21`, the outcome was inactive.

Regarding `Clc1ccccc1CN1COc2c(cc(Cl)c3cccnc23)C1`, the EC50 was over 87.1 µM and the half-maximal inhibitory concentration (IC50) came out at 4.57 µM. On the same counts, the results for `Cc1nc2[nH]ncn2c(=O)c1CCCl` are over 200 µM and 34.7 µM. As to `COc1cc(/C=C/C(=O)c2cc(Cl)cc(Cl)c2O)cc(OC)c1OC`, the EC50 is over 200 µM and the IC50 was 2.04 µM. Turning to `C#Cc1c(C)c(/C=C/C(C)=C/C(=O)OC)n(C)c1C`, the outcome was inactive. With `COc1ccc(N=C2C(=Nc3ccc(OC)cc3)N(S(=O)(=O)c3ccccc3)C(=S)N2c2ccccc2)cc1`, the EC50 is over 200 µM and the IC50 was over 200 µM. As for `Nc1c(N=Nc2ccc(/C=C/c3ccc(N=Nc4cc(S(=O)(=O)O)c5cccnc5c4N)cc3S(=O)(=O)O)c(S(=O)(=O)O)c2)cc(S(=O)(=O)O)c2cccnc12`, the EC50 is over 4.68 µM and the IC50 was over 4.68 µM. Turning to `S=C(SSSSC(=S)N1CCCCC1)N1CCCCC1`, the EC50 is over 10.5 µM and the IC50 was 2.14 µM. Turning to `Sc1nnc(-c2ccccc2Nc2ccccc2-c2nnc(S)n2-c2ccccc2)n1-c1ccccc1`, the EC50 is over 87.1 µM and the IC50 was found to be 25.1 µM. `c1ccc(-c2nnc(-c3ccccn3)c3c2C[C@@H]2C[C@@H]4Cc5c(-c6ccccn6)nnc(-c6ccccn6)c5[C@@H]4[C@H]32)nc1`: the EC50 is over 200 µM and the concentration for half-maximal inhibition (IC50) is over 200 µM. On to `COc1ccc(-c2onc(-c3ccc([N+](=O)[O-])cc3)c2C2=NCCCN2)cc1`, for which the EC50 is over 50.1 µM and the concentration for half-maximal inhibition (IC50) was over 50.1 µM. Regarding `CCOC1(c2ccccc2)OC(=O)c2ccccc21` (configuration not stated), the outcome was inactive.

In the case of `O=C1NC2(CCCC2)C(=O)C12CCCC2`, the outcome was inactive. For the compound `O=C1CCCCCCCCCCC1CN1CCOCC1` (configuration not stated), the EC50 was over 72.4 µM and the half-inhibitory concentration (IC50) is over 72.4 µM. Take `CC(C)C1=CC2=C(C(=O)C1=O)C13CCCC(C)(C)C1CC2OC3=O` (configuration not stated): the EC50 was over 79.4 µM and the IC50 came to 28.2 µM. For `O=C(/C=C/c1ccccc1)c1ccc(Cl)cc1Cl`, the EC50 was over 2.69 µM and the half-inhibitory concentration (IC50) is over 2.69 µM. Consider `Nc1ccc2c(c1)C(=O)N(O)C2=O`, for which the EC50 is over 1410 µM and the concentration for half-maximal inhibition (IC50) was 759 µM. Take `COc1cc2c(c(OC)c1O)C(=O)CC(c1ccc(O)cc1)O2` (configuration not stated): the EC50 was over 200 µM and the half-inhibitory concentration (IC50) is 21.9 µM. `CC(C)(C)c1ccc(Oc2ccc3c(c2)-c2nc-3nc3[nH]c(nc4nc(nc5[nH]c(n2)c2ccc(Oc6ccc(C(C)(C)C)cc6C(C)(C)C)cc52)-c2cc(Oc5ccc(C(C)(C)C)cc5C(C)(C)C)ccc2-4)c2ccc(Oc4ccc(C(C)(C)C)cc4C(C)(C)C)cc32)c(C(C)(C)C)c1`: the EC50 is over 9.77 µM and the concentration for half-maximal inhibition (IC50) was over 9.77 µM. For `O=[N+]([O-])c1cccc(/C=N/NC2=CS(=O)(=O)C=C2)c1`, the EC50 is over 67.6 µM and the IC50 was over 67.6 µM. As for `CCN(CC)CC(=O)NC1c2ccccc2Oc2ccccc21`, the EC50 is over 219 µM and the IC50 was over 219 µM. `CCN(CC)C(=O)c1ccc(O)c(OC)c1`: the EC50 is over 200 µM and the IC50 was over 200 µM. With `CC1=C(N2CC2)C(=O)c2nc3n(c2C1=O)CCC3O` (configuration not stated), the result was inactive. `CC(=O)OC1Cn2ccc[n+]2C1` (configuration not stated): the EC50 was over 200 µM and the IC50 is over 200 µM. `COC(=O)c1c[nH]c2c1-c1cc(C(=O)OCc3ccccc3)n(S(=O)(=O)c3ccc(C)cc3)c1C(=O)C2=O`: the EC50 is over 200 µM and the IC50 was 3.72 µM. `COc1ccc(C(=O)Nc2ccn(CCOC(=O)c3ccc(OC)cc3)c(=O)n2)cc1`: the EC50 is over 44.7 µM and the half-maximal inhibitory concentration (IC50) was over 44.7 µM.

Values taken from PubChem BioAssay AID179 (DTP/NCI, 2004).
